Assay results taken from publication PMC3506268, “Microneedle pretreatment enhances the percutaneous permeation of hydrophilic compounds with high melting points” (BMC Pharmacology & Toxicology, 2012).
Read-outs that look alike come from different tables or passages of the source.

Columns and labels:
[1] = design: method as in earlier work; details: cited from earlier work
in vitro = details: for Jmax: 80% saturated solution in PBS, 6 h; for Jmax / Papp at 6 h / recovery: mean, n = 5–6; for Papp at 6 h / recovery: female, Holstein Friesian, bovine; for Papp at 6 h: 10^-6 Papp
Procedure: The skin was obtained from bovine udders, all of which were harvested from Holstein Friesian cows which died at a slaughterhouse for food production, and the cleaned skin samples were stored at - 20°C until use. After thawing at room temperature split skin samples with a thickness of 600 μm ± 50 μm were produced using an electrical microtome (Zimmer, Eschbach, Germany), whereby damaged skin samples were excluded from the study.
Prior to the experiment split skin samples with appropriate size of 2 x 2 cm were incubated in phosphate buffered saline (PBS) for 30 minutes. They were placed on a styropor panel and fixed with needles beyond the subsequent diffusion area of the skin samples before the microneedle rollers were rolled in four axes radial over the skin surface (Figure 1 C).
The diffusion experiments were performed in Franz-type diffusion cells obtained from PermeGear (Riegelsville, PA, USA) with a receptor chamber of approximately 12 ml and a diffusion area of approximately 1.77 cm². Sonicated PBS was used as receptor fluid. […] The donor chambers were covered with parafilm® (American Can Company, Baltimore, USA) and were checked for precipitation of the compounds during the whole experiment. Aliquots were taken from the receptor fluid and replaced by the same amount of fresh PBS at 0, 0.5, 1, 2, 4, and 6 hours. Each treatment (untreated control, 200 μm microneedle, and 300 μm microneedle) was performed in duplicate per animal (n = 6).
The receptor fluid samples (100 μl) were analysed by high-performance liquid-chromatography, the methodology of which has derived from recent studies. […] The separation took place on a reversed phase column (LiChroCART 125–4, LiChrospher 100 RP-18e, 5 μm (Merck, Darmstadt, Germany)), which was maintained at 40°C.
The linear part of the gradient of the permeation curve (time vs. concentration in the receptor fluid) represents the maximum flux Jmax (μg/cm²/h) and is employed to calculate the apparent permeability coefficient Papp (cm/s) according to Niedorf et al. 2008 [23]. Differences between control samples and pretreated skin samples were evaluated by Friedman test followed by Dunn´s multiple comparison test (GraphPad Prism 4.01 (GraphPad Software Inc., San Diego, USA). A 0.05 significance level was adopted.

[2] = design: method as in PMID 20624460; details: microneedle treated skin, in vitro; cited from earlier work
[3] = 200 μm microneedle pretreatment
[4] = 300 μm microneedle pretreatment
[5] = 300 μm microneedle pretreatment, * = p<0.05 versus control

Row | Jmax (in vitro; [3]) [μg/cm²/h] | Increase of maximum flux (Jmax) and Papp-value versus untreated skin (in vitro; [4]) | Jmax (in vitro; [4]) [μg/cm²/h] | Papp at 6 h (in vitro; [5]) [×10⁻⁶ cm/s] | Papp at 6 h (in vitro; untreated control skin) [×10⁻⁶ cm/s] | recovery (in vitro; [3]) [%] | recovery (in vitro; [4]) [%] | recovery (in vitro; untreated control skin) [%] | Jmax (in vitro; untreated control skin) [μg/cm²/h] | Higher flux through pretreated skin compared to untreated skin (in vitro; [3]) | Higher flux through pretreated skin compared to untreated skin (in vitro; [4]) | Papp at 6 h (in vitro; [3]) [×10⁻⁶ cm/s] | SMILES | logKo/w [1] | logKo/w ([1]; listed as diclofenac) | Permeation enhancement [2]
1 | 8.75 | ≤ 7 fold | 11.55 | 1.24 | 0.18 | 3.17 | 3.54 | 0.49 | 1.72 | – | – | – | O=C(O)Cc1ccccc1Nc1c(Cl)cccc1Cl [Diclofenac] | 0.7 | < 1 | –
2 | – | up to 3 fold | – | – | – | 11.2 | 17.8 | 6.76 | – | twofold | threefold | – | CC(C)Cc1ccc(C(C)C(=O)O)cc1 (stereo not drawn) [Ibuprofen, ibuprofen] | – | – | –
3 | 2.36 | up to 3 fold | 2.99 | 0.35 | 0.12 | 0.76 | 0.96 | 0.3 | 1.03 | twofold | threefold | 0.28 | CC(C(=O)O)c1cccc(C(=O)c2ccccc2)c1 (stereo not drawn) [Ketoprofen, ketoprofen] | – | – | –
4 | – | – | – | – | – | – | – | – | – | – | – | – | CC(=O)Oc1ccccc1C(=O)O [acetylsalicylic acid] | – | – | up to 2 times
